The target in data set [1] is Human CCR1 (Homo sapiens (Human), UniProt P32246). The experiment in a line: Human CCR1 THP-1 binding assay. The following applies: [125I]-MIP-1α competition, THP-1 cells. As for the experimental part:
For radioligand competition studies, a final concentration of 1×10^5 THP-1 monocytic leukemia cells are combined with 100 μg of LS WGA PS beads (Amersham, Cat.#: RPNQ 0260) in 40 μL of assay buffer (RPMI 1640 without phenol red, 50 mM HEPES, 5 mM MgCl2, 1 mM CaCl2, 0.1% BSA). The THP-1 cell/bead mixture was added to each well of a 384-well assay plate (PerkinElmer, Cat. #:6007899) containing test compound in 3-fold serial dilution, with final concentrations ranging from 8 μM to 0.14 nM. A final concentration of 0.1 nM [^125I]-MIP-1α (PerkinElmer, Cat. #NEX298) in 20 μL assay buffer was added to the reaction. Unlabeled MIP-1α was added in excess to some wells to determine non-specific binding. Sealed assay plates were incubated at room temperature for 12 h then analyzed by LEADseeker™.
The competition data of the test compound over a range of concentrations is plotted as percentage inhibition of radioligand specifically bound in the absence of test compound (percent of total signal). After correcting for non-specific binding, IC50 values are determined. The IC50 value is defined as the concentration of test compound needed to reduce [^125I]-MIP-1α specific binding by 50% and is calculated using the four parameter logistic equation to fit the normalized data. The Ki values are determined by application of the Cheng-Prusoff equation to the IC50 values, where Ki=IC50/(1+ligand concentration/Kd). The Kd of [^125I]-MIP-1α in THP-1 cells is 0.1 nM. Each experiment was run in duplicate.

Data set [2] deals with Human PXR (Homo sapiens (Human), UniProt O75469). Put plainly: PXR transactivation assay. In kind it is cell-based. The source says:
The cell culture medium used is DMEM. […] Charcoal/dextran treated fetal bovine serum (FBS) was purchased from Hyclone (Logan, Utah). HepG2 cells were obtained from ATCC (Manassas, Va.). Human PXR-pcDNA3 and luciferase reporter containing CYP3A4 promoter, CYP3A-Luc, were generated at Bristol-Myers Squibb. White tissue culture (TC)-surface 384-well plates were purchased from Perkin Elmer (Boston, Mass.). Luciferase substrate (Steady-Glo) was purchased from Promega (Madison, Wis.). Control compounds rifampicin, mifepristone, and sulfinpyrazone were purchased from Sigma (St. Louis, Mo.).
Culture of HepG2 cells is performed in T175 flasks using DMEM containing 10% FBS. The transfection mixture contains 1 μg/mL of PXR-pcDNA3 plasmid DNA, 20 μg/ml of Cyp3A-Lue plasmid DNA, 90 μL/mL of Lipofectamine 2000, and serum-free medium. After incubating at room temperature for 20 minutes, the transfection mixture (1 ml per flask) is applied to the cells in fresh medium (20 mL per flask), and flasks incubated at 37° C. (5% CO2) overnight.
The flasks are then tapped vigorously to break up cell aggregates. After the addition of 8 mL of DMEM containing 5% charcoal/dextran-treated FBS, the entire mixture is transferred to conical tubes. Cells are then centrifuged at 1000 rpm for 5 minutes. Cell pellets are resuspended to a final count of ˜7×10^6 cells/ml, in freezing media (DMEM containing 20% serum and 10% DMSO). The cell suspension is aliquoted into 15-mL polypropylene tubes, 5 mL per tube. Cells are slowly frozen by placing in a Styrofoam-insulated container at −80° C. overnight. Vials are transferred to an Ultracold (−140° C.) freezer after 24 hours for long-term storage.
Vials of cryopreserved cells are thawed rapidly in a warm water bath for five minutes. Cells are pooled and diluted to 50 mL in a 50-mL conical vial. The thawed cells are centrifuged at 1500 rpm for 5 minutes to collect the cells and the supernatant discarded. Cells are then resuspended in fresh Media II (DMEM containing 5% charcoal/dextran-treated FBS, 1% Penicillin/Streptomycin, 100 μM Non-essential Amino Acids, 1 mM Sodium Pyruvate, and 2 mM L-Glutamine), counted using the Guava Cell Counter, and diluted to 1.6×10^5 cells/ml in the same media.
Fifty microliters of cell mixture is added to wells in columns 1-23 of white tissue-culture treated 384-well plates containing 0.25 μL of test compound dissolved in 100% DMSO. Fifty microliters of Media II is added to wells in column 24. The plates are incubated at 37° C. (5% CO2) for 24 hours, then 5 μL of Alamar Blue reagent (Trek Diagnostics, Cat #00-100) is added to each well. Plates are then incubated an additional two hours at 37° C., 5% CO2 and then one hour at room temperature. […] After the fluorescence is measured, 25 μL of luciferase substrate (Steady-Glo, Promega) is added to each well. The plates are incubated for fifteen minutes at room temperature, after which the luminescence is read on a PheraStar (BMG Labtech) plate reader.
Rifampicin (10 μM), a well-known agonist of PXR, is included in each plate as an internal standard and positive control. The data is then expressed as percent control (% CTRL), where the control signal is the signal from the 10 μM rifampicin and the blank signal is that from the DMSO vehicle. % CTRL=((Compound signal−Blank signal)/(Control signal−Blank signal))*100
The EC50 is defined as the concentration corresponding to half of the maximal response derived from the fitted 20-point curve as determined using a four-parameter logistic regression model. Additionally, compounds may also be reported as EC20 or EC60.

Setting [3] is: HepG2 cells, CYP3A-Luc reporter.

From patent US8633226B2, “Piperidinyl derivative as a modulator of chemokine receptor activity” (Bristol-Myers Squibb Company, priority 2008, dated 2014) come the findings set out here.

Structures are written as SMILES.

Sequence of Human CCR1 (P32246 whole entry): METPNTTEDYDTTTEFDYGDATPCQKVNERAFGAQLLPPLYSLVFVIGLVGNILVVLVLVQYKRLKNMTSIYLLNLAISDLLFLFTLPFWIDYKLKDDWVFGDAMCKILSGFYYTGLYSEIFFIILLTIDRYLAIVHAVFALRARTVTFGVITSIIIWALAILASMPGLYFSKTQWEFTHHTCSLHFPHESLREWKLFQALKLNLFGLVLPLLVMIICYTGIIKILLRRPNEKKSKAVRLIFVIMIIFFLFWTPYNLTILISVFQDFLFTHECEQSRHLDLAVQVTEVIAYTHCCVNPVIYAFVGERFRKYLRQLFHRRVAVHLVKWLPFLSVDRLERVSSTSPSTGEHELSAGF
Sequence of Human PXR (O75469 whole entry): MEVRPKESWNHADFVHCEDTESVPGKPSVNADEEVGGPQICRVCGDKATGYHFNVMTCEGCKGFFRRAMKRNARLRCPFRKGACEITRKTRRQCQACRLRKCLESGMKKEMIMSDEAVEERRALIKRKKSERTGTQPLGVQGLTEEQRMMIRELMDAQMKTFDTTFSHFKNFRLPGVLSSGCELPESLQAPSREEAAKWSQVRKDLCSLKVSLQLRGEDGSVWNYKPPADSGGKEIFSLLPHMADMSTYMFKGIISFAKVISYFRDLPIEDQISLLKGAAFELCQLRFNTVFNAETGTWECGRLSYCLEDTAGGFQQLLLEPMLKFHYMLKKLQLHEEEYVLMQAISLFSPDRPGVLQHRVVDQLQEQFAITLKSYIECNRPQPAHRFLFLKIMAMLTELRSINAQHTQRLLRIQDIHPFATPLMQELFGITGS

A word on the Ki: it is the dissociation constant of the complex between target and ligand, obtained from inhibition or displacement. One may read the EC50 as the concentration that produces a half-maximal response. In turn, `CC(C)[C@@H](NC(=O)NCC(C)(C)O)C(=O)N1CC[C@](O)(c2ccc(Cl)cc2)C(C)(C)C1` [Compound I] gave a Ki in data set [1] of 0.7 nM. In data set [2] (setting [3]), the half-maximal effective concentration (EC50) was > 25000 nM. Moreover, in data set [2] (in vitro screen), the “PXR activation (in words)” value is given as “not a significant activator”.
`CC(C)CC(=O)N[C@@H](C(=O)N1CC[C@](O)(c2ccc(Cl)cc2)C(C)(C)C1)C(C)C` [#466] had an inhibition constant Ki in data set [1] of 2.6 nM. Besides, the “PXR EC60” value in data set [2] (HepG2 cells, CYP3A-Luc reporter, reported as EC60) worked out at 1120 nM.
As to `CC(C)[C@@H](NC(=O)CC(C)(C)O)C(=O)N1CC[C@](O)(c2ccc(Cl)cc2)C(C)(C)C1` [#1356], affinity in data set [1] was put at a Ki of 3.7 nM. Besides, in data set [2] (setting [3]), the concentration for a half-maximal effect (EC50) worked out at 1830 nM.
`CC(C)[C@@H](NC(=O)C1CCCC1)C(=O)N1CC[C@](O)(c2ccc(Cl)cc2)C(C)(C)C1` [#460] gave a Ki in data set [1] of 0.7 nM. The EC50 in data set [2] (setting [3]) is 530 nM.
